Data as given in patent publication US9486502B2, “Methods of administering interferon gamma to absorb fluid from the subretinal space” (The United States of America, as represented by the …, priority 2008, dated 2016).
Where a name gives a salt, the structure may show the parent alone.

What was measured:
Type in all cases: cell-based, human
[1] = tested on: hfRPE monolayers; experiment: fluid transport (JV, TEP, RT) across hfRPE monolayers in modified Üssing chamber; details: for effect on JV after P38 MAPK inhibitor: CFTR inhibitor added to basal bath after P38 MAPK inhibitor
Description: Confluent monolayers of hfRPE cultured on transwells were mounted in a modified Üssing chamber and transepithelial water flow measurements (JV) were made with a capacitance probe technique as described previously in Maminishkis, A., et al., Invest Ophthalmol Vis Sci, 2006, 47, 3612-3624; Shi, G., et al., Invest Ophthalmol Vis Sci, 2008, 49, 4620-4630; Edelman, J. L., et al., Invest Ophthalmol Vis Sci, 1991, 32, 3033-3040; Jiang, C., et al., Science, 1993, 262, 424-427; and Maminishkis, A., et al., Invest Ophthalmol Vis Sci, 2002, 43, 3555-3566, each incorporated herein by reference in its entirety.
Tissue viability was ascertained by recording transepithelial potential (TEP) and total tissue resistance (RT). It should be noted that the solution composition changes in this chamber were relatively slow (≈1-2 chamber volumes per minute) and the data sampling rate was once per minute, more than two orders of magnitude slower than the sampling rate in the electrophysiology chamber (see below). Therefore it was not possible to record fast changes, in seconds or minutes, in JV, TEP, or RT. After addition of IFNγ to the apical or basal baths, steady-state JV, TEP, and RT were recorded for 20-30 minutes. In control experiments, successive additions of IFNγ were made to test for the repeatability and reversibility of responses. To block IFNγ effects, RPE cells were incubated for 30-60 minutes with a blocking antibody against IFNγ R1, JAK inhibitor I, PKA inhibitors (H-89, EMD Biosciences; RP-8-Br-cAMPS, Sigma-Aldrich), nitric oxide synthase inhibitor (aminoguanidine hydrochloride, Sigma-Aldrich), P38 MAPK inhibitors (SB203580 or SB20290), or CHX. Other components of this signaling pathway were studied using P38 MAPK inhibitors (SB203580 and SB202190). Relatively specific Cl channel inhibitors, CFTRinh-172 or DIDS (EMD Biosciences, La Jolla, Calif.), were used to block cAMP or Ca^2+-activated Cl channels; experiments with CFTRinh-172 were performed as described in Muanprasat, C., et al., J Gen Physiol, 2004, 124, 125-137, incorporated herein by reference in its entirety. In chronic experiments, paired hfRPE tissues with matched RT values were incubated for 4-24 hours with IFNγ or CHX. The subsequent changes in JV, RT, and TEP were measured in Ringer's solution or serum free cell culture media as previously described in Shi, G., et al., Invest Ophthalmol Vis Sci, 2008 and Maminishkis, A., et al., Invest Ophthalmol Vis Sci, 2006, 47, 3612-3624, each incorporated herein by reference in its entirety. Intracellular levels of NO were elevated with 1-Hydroxy-2-oxo-3-(3-aminopropyl)-3-isopropyl-1-triazene (NOC-5, Enzo Life Sciences, Plymouth, Pa.). 8-Br-cGMP was purchased from Sigma-Aldrich.

[2] = tested on: hfRPE monolayers; experiment: electrophysiology of hfRPE monolayers (TEP, RT, VA, VB, RA/RB)
Description: Equivalent circuit analysis and electrophysiological methods have been previously described in Quinn, R. H., et al., Invest Ophthalmol Vis Sci, 1992, 33, 3513-3527; Joseph D. P., et al., J Physiol, 1991, 435, 439-463; and Maminishkis, A., et al., 2006, Ophthalmol Vis Sci, 47, 3612-3624each incorporated herein by reference in its entirety.
Briefly, confluent monolayers of cultured hfRPE were mounted on a nylon mesh support and clamped into a modified Üssing chamber that allowed the rapid exchange of Ringer's solution (≈10 chamber volumes per minute) and the measurement of fast electrical changes in seconds. The electrical connections to the apical and basal chambers were made with Ringer-agar bridges in series with calomel electrodes. Intracellular potentials were recorded with conventional microelectrodes, back-filled with 150 mM KCl, with resistances of 80 to 200 Ma The apical and basolateral membrane potentials (VA and VB) are calculated as the voltage differences between the intracellular microelectrode and the apical and basal bath electrodes, respectively. The resistances of the apical and basolateral membranes were designated RA and RB, respectively, and the transepithelial potential (TEP=VB-VA) is the voltage difference between the apical and basal bath electrodes. Epithelial resistance parameters were obtained by passing 4-μA bipolar current pulses (i) using Ag—AgCl electrodes, one located in the apical chamber and the other located in the basal chamber. The total transepithelial resistance (Rt) is calculated from the current-induced changes in TEP (Rt=ΔTEP/i). The apparent membrane resistance ratio (RA/RB) is calculated from the ratio of change in VA to change in VB (RA/RB=ΔVA/ΔVB).
The control Ringer's solution for measurements of TEP and Rt in culture hfRPE contained 116 mM NaCl, 5 mM KCl, 26.2 mM NaHCO3, 1 mM NaH2PO4, 1 mM Mg Cl2, 1.8 mM CaCl2, 10 mM glucose, and 2 mM Taurine. The osmolarity of control Ringer's solution was 295 mOsm. The solutions were maintained at 35° C. and a pH of 7.4, and were bubbled with 10% O2, 5% CO2 and 85% N2. 8-Bromo-cAMP (or Dibutyryl cAMP), 8-Br-cGMP, and forskolin were obtained from Sigma-Aldrich.

[3] = tested on: hfRPE cells; experiment: immunoblotting of JAK-STAT / MAP kinase signalling proteins in hfRPE; details: 4 hours
Procedure: Immunoblotting was performed as previously described in Li, R. et al., 2007, Invest Ophthalmol Vis Sci, 48, 5722-5732, incorporated by reference in its entirety herein. Primary cultures of hfRPE and native human adult RPE cells were lysed using RIPA buffer (Sigma-Aldrich) supplemented with proteinase inhibitor cocktail (Roche). Total protein in the supernatant was measured (BCA™ protein assay, Pierce Biotechnology) and 20 µg of protein from cell lysate supernatants was electrophoresed on a 4-12% gradient Bis-Tris NuPAGE gel (Invitrogen) under reduced or non-reduced conditions. Resolved proteins were transferred to nitrocellulose membranes (membranes and XCell II™ Blot Module, Invitrogen).
The membranes were incubated with mouse anti-human IFNγ R1 monoclonal antibody (R&D Systems), anti-human IFNγ R2 (Santa Cruz Biotechnology), anti-human IFNAR1, anti-human IFNAR2 (Abcam), anti-IRF1, anti-IRF2, anti-IRF8 (Santa Cruz Biotechnology) or anti-CFTR antibody 217 (Cystic Fibrosis Foundation Therapeutics Inc., Bethesda, Md.), after blocking non-specific binding ((StartingBlock™ T20 (TBS), Pierce Biotechnology). Membranes were then incubated with horseradish peroxidase (HRP) conjugated secondary antibody (Pierce Biotechnology) and visualized using Supersignal® West Dura Extended Duration Substrate (Pierce Biotechnology) and imaged using an Autochemie™ system (UVP, Upland, Calif.). The antibody-specific bands for IRF-1, IRF-2, ICSBP (IRF-8) and GAPDH were around 91 kDa, […], respectively.
For phosphorylation studies, cells were starved for 24 hours in serum-free medium (“SFM,” MEM-α modification medium containing non-essential amino acids and Glutamine-Penicillin-Streptomycin). Cells were treated with IFNγ (5-50 ng/ml) in SFM at various time points at 37° C. and lysed with RIPA buffer supplemented with proteinase inhibitor cocktail (Roche) and Halt™ phosphatase inhibitor cocktail (Pierce Biotechnology). 40 μg of protein was electrophoresed. As in the immunoblotting experiments described above, except that the membranes were incubated with anti-phospho-p38 MAP kinase (Thr180/Tyr182), anti-p38 MAP kinase, anti-phospho-Stat1 (Tyr701), anti-phospho-Stat1 (Ser727) or anti-Stat1 antibodies, respectively (each from Cell signaling Technology, Danvers, Mass.). The antibody-specific bands for STAT1/phospho-STAT1 (Tyr701) were around 84 kDa. GAPDH was blotted together with anti-GAPDH antibody (Abcam) and used as loading control. Cyclohexamide (“CHX”; Sigma-Aldrich), a protein synthesis inhibitor, was used at 62 μM.
For CFTR immunoblotting analysis, confluent monolayers of hfRPE were homogenized on ice in isolation solution (250 mM Sucrose, 10 mM Tris-HCl, 10 mM MgCl2, 1 mM CaCl2, pH 7.4) supplemented with Halt™ protease inhibitor cocktail, EDTA-free. Nuclei and intact cells were removed with centrifugation (900×g for 10 minutes at 4° C., followed by centrifugation at 10,000×g for 5 minutes). Crude plasma membrane proteins were collected after centrifugation at 100,000×g for 1 hour at 4° C.

[4] = CFTRinh−172 basal bath after IFNγ
[5] = H-89 40 μM pre-treatment 30 minutes
[6] = SB203580 pretreatment ≧30 minutes, n=6

## Nc1nc2c(nc(Br)n2[C@@H]2O[C@@H]3COP(=O)(O)O[C@H]3[C@H]2O)c(=O)[nH]1 [8-Br-cGMP]
[1]; 100 μM both baths, FIG. 21, from 6.0
  JV after 8-Br-cGMP: 19.5 μl·cm^−2·hr^−1
[1]; four experiments, from 7.4±1.1
  Jv after 8-Br-cGMP: 15.8±1.6 μl·cm^−2·hr^−1

## O=C(O)c1ccc(/C=C2\SC(=S)N(c3cccc(C(F)(F)F)c3)C2=O)cc1 [CFTRinh−172]
[1]; CFTR inhibitor 5 μM basal bath, NOC-5 250 μM, n=3
  effect on NOC-5 induced increase in Jv: blocked
[1]; CFTR inhibitor added after H-89
  effect on IFNγ-induced fluid transport after H-89: no further effect
[1]
  effect on JV after P38 MAPK inhibitor: further decrease
[1]; listed as CFTR inhibitor
  effect on JV after P38 MAPK inhibitor: further decreased
[1]; CFTRinh−172 5 μM basal bath, FIG. 14E
  decrease of the IFNγ-induced JV increase: ≈ 9.8 μl·cm^−2·hr^−1
[1]; CFTRinh−172 5 μM, 11 experiments, from 16.6±1.2
  mean JV after inhibitor in IFNγ-treated hfRPE: 6.8±1.0 μl·cm^−2·hr^−1
[1]; CFTRinh−172 5 μM, from 15.1, FIG. 14F
  JV after inhibitor in 24 hour IFNγ-treated hfRPE: 4.8 μl·cm^−2·hr^−1
[1]; CFTRinh−172 added after IFNγ and basal DIDS, n=1
  decrease in JV: 12.6 μl·cm^−2·hr^−1
[1]; CFTRinh−172 basal bath, no IFNγ, baseline 12.5 ±3.1, n=5
  baseline JV after inhibitor: 3.2 ±1.0 μl·cm^−2·hr^−1
[1]; FIG. 21, from 19.5
  Jv after CFTR inhibitor in 8-Br-cGMP-treated hfRPE: 11.5 μl·cm^−2·hr^−1
[1]; four experiments, from 15.8±1.6
  Jv after CFTR inhibitor in 8-Br-cGMP-treated hfRPE: 8.9±1.3 μl·cm^−2·hr^−1
[2]; CFTRinh−172
  effect on cAMP-induced electrical changes: blocked
[2]; [4]
  effect on RA/RB: slight decrease
  effect on RT: increased
  effect on TEP: decreased
  effect on both membrane potentials: hyperpolarize

## C[C@@H]1C[C@@H]([C@H](O)CC2CC(=O)NC(=O)C2)C(=O)[C@@H](C)C1 [CHX, cycloheximide]
[3]; CHX 62 μM, with IFNγ
  effect on IRF-2 protein: no effect
  effect on de novo synthesis of IRF-1: completely blocked
[3]; cycloheximide with IFNγ
  effect on STAT1 synthesis: partly inhibited
[1]; 62 μM, apical and basal, 30 minutes
  effect of CHX per se on JV: no apparent change
[1]; 4 hours of pre-treatment with CHX
  IFNγ-induced JV increase after CHX pre-treatment: no IFNγ-induced JV increase
[1]; CHX 62 μM 30 minutes
  effect on ability of CFTRinh−172 to block IFNγ-induced JV increase: did not affect
[1]; CHX 62 μM 30 minutes before IFNγ 5 ng/ml
  effect on IFNγ-induced increase in JV: no effect
[1]; IFNγ 5 ng/ml + CHX 62 μM, 24 hours, IFNγ alone 15.9, FIG. 14I
  JV after IFNγ and CHX: 8.8 μl·cm^−2·hr^−1
[1]; another experiment, IFNγ alone 14.9
  JV after IFNγ and CHX: 9.8 μl·cm^−2·hr^−1

## O=S(=O)(O)c1cc(N=C=S)ccc1C=Cc1ccc(N=C=S)cc1S(=O)(=O)O [DIDS]
[1]; DIDS 500 μM, n=2
  effect on spontaneous steady-state JV: no effect
[1]; DIDS, n=2
  effect on JV following CFTRinh−172 inhibition of IFNγ-induced JV: no further inhibition
[1]; basal DIDS
  effect on IFNγ-induced JV increase: not affected

## O=S(=O)(NCCNC/C=C/c1ccc(Br)cc1)c1cccc2cnccc12 [H-89]
[1]; H-89 40 μM after IFNγ
  effect on IFNγ stimulated JV increase: significantly blocked
[1]; H-89 40 μM both sides, from 20.1±0.2
  JV after H-89 added to IFNγ-stimulated hfRPE: 8.3±1.3 μl·cm^−2·hr^−1
[1]; [5]
  effect on baseline level of JV: no significant effect
  effect on the effect of IFNγ: completely blocked
[1]; four experiments, steady-state baseline 12.8±5.2
  JV after H-89: 12.9±3.7 μl·cm^−2·hr^−1

## CC(C)N(CCCN)[N+]([O-])=NO [NOC-5, 1-Hydroxy-2-oxo-3-(3-aminopropyl)-3-isopropyl-1-triazene]
[1]; NOC-5 apical and basal baths, n=3
  effect on JV: more than doubled

## Oc1ccc(-c2nc(-c3ccncc3)c(-c3ccc(F)cc3)[nH]2)cc1 [SB202190]
[1]; SB202190 1-5 μM
  block of IFNγ stimulated fluid transport: approximately 46%

## C[S+]([O-])c1ccc(-c2nc(-c3ccncc3)c(-c3ccc(F)cc3)[nH]2)cc1 (stereo not drawn) [SB203580]
[1]; SB203580 5 μM
  decrease of IFNγ-induced JV: approximately 62%
[1]; SB 203580 5 μM apical and basal after IFNγ 5 ng/mL, n=9
  effect on IFNγ induced JV: decreased
[1]; SB203580, n=3
  effect on JV following inhibition by basal bath CFTRinh−172: no further effect
[1]; [6]
  effect on baseline level of JV: no significant effect
  effect on the effect of IFNγ: completely blocked

## N=C(N)NN [aminoguanidine hydrochloride]
[1]; iNOS inhibitor 100 μM applied after IFNγ 5 ng/ml, n=3, hydrochloride
  effect on IFNγ induced increase in Jv: blocks
[1]; iNOS inhibitor 100 μM applied after IFNγ 5 ng/ml, n=3, listed as aminoguandidie hydrochloride, hydrochloride
  effect on IFNγ induced increase in Jv: block
[1]; pre-treatment with iNOS inhibitor, n=3
  effect on IFNγ induced increase in Jv: completely blocked
